We go through ten molecules from ChEMBL document CHEMBL1909046, “DrugMatrix in vitro pharmacology data”.

The target of one data set is T1, Progesterone receptor (Bos taurus, UniProt Q690N0).
T1 sequence (Q690N0 whole entry): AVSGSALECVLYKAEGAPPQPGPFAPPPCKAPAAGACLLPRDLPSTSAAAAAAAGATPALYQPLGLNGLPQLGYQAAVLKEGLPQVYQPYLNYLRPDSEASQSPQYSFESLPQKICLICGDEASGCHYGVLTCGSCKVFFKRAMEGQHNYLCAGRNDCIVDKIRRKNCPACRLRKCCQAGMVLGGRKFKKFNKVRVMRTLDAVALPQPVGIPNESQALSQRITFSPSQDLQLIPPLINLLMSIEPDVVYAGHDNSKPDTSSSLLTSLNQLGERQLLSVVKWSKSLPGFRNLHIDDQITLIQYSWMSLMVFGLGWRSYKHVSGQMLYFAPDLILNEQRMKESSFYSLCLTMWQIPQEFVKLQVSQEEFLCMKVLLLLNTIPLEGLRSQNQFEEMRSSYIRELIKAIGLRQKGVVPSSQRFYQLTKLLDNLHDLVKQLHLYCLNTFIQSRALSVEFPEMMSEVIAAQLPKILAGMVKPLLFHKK
Description: DRUGMATRIX: Progesterone radioligand binding (ligand: [3H] R-5020). It is filed as tissue-based, Uterus. The settings on record: Not Active = under 50% inhibition at 10 µM.

In a further data set the target is T2, Glucocorticoid receptor (Homo sapiens, UniProt P04150). Further: in other assays of this panel Not Active means under 50% inhibition at 10 µM.
T2 sequence (P04150 whole entry): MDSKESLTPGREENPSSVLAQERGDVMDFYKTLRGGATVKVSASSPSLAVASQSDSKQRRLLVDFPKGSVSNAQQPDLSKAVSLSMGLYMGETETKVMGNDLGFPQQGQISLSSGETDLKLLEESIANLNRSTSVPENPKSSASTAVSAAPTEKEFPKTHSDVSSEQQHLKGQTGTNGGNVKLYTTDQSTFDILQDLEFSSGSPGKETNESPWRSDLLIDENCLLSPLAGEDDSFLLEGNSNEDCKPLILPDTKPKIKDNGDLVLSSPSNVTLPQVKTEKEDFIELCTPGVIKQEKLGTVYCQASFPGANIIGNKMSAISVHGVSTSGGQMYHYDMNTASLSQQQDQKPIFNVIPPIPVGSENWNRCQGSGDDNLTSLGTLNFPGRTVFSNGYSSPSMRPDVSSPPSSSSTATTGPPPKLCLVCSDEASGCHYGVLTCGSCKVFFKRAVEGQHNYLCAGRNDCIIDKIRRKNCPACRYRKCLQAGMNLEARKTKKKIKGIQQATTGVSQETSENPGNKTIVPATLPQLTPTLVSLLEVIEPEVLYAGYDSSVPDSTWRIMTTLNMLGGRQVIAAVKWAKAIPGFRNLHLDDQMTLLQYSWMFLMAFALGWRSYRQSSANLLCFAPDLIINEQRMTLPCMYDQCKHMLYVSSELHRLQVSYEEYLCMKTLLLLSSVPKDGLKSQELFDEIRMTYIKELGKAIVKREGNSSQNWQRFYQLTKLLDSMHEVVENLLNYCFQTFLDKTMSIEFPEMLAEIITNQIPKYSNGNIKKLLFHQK
The following applies: hela s3.

The target of the next data set is D(1A) dopamine receptor (Homo sapiens, UniProt P21728). Nature of the data set: DRUGMATRIX: Dopamine D1 radioligand binding (ligand: [3H] SCH-23390). It is filed as cell membranes, CHO, Membrane. The following applies: cho; Not Active = under 50% inhibition at 10 µM.
The target in data set [1] is 5-hydroxytryptamine receptor 2B (Homo sapiens, UniProt P41595). Type of data set: cell membranes, CHO-K1, Membrane. Further: in other assays of this panel Not Active means under 50% inhibition at 10 µM.
Another data set concerns the target Cytochrome P450 2C19 (Homo sapiens, UniProt P33261). The settings on record: bti-tn-5b1-4. Further: in other assays of this panel Not Active means under 50% inhibition at 10 µM.
The target of another data set is T3, Cytochrome P450 1A2 (Homo sapiens, UniProt P05177). Further: in other assays of this panel Not Active means under 50% inhibition at 10 µM.
T3 sequence (P05177 whole entry): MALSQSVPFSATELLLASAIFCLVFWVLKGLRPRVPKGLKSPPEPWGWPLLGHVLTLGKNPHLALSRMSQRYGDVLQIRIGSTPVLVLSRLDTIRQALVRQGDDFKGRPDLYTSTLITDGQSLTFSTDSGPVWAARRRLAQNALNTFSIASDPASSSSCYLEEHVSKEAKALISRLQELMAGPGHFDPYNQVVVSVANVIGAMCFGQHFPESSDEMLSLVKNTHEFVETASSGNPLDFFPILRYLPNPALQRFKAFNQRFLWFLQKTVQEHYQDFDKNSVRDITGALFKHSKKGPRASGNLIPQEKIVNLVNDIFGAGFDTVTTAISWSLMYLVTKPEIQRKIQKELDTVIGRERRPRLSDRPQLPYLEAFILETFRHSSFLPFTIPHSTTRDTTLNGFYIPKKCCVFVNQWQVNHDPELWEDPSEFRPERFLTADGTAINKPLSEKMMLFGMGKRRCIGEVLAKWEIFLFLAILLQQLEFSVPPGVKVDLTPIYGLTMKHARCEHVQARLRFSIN
The settings on record: bti-tn-5b1-4.

The target in the next data set is Cytochrome P450 3A4 (Homo sapiens, UniProt P08684). The settings on record: bti-tn-5b1-4. Further: in other assays of this panel Not Active means under 50% inhibition at 10 µM.
For the next data set, the target named is Cytochrome P450 2D6 (Homo sapiens, UniProt P10635). The following applies: bti-tn-5b1-4. Further: in other assays of this panel Not Active means under 50% inhibition at 10 µM.

Molecules are shown by their SMILES.

Sequence of D(1A) dopamine receptor (P21728 whole entry): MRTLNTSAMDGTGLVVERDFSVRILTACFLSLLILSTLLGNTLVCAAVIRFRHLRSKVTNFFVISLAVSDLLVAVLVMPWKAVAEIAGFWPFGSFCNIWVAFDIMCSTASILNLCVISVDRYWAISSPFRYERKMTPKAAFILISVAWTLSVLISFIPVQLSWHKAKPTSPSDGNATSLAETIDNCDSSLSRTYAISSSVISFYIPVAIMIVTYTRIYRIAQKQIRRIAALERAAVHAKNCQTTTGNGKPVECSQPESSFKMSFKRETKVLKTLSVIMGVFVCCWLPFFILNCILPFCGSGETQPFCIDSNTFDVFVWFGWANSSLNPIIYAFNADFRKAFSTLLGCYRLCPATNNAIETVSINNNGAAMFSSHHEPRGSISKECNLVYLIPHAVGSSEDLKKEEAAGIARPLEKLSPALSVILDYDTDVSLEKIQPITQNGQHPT
Sequence of Cytochrome P450 3A4 (P08684 whole entry): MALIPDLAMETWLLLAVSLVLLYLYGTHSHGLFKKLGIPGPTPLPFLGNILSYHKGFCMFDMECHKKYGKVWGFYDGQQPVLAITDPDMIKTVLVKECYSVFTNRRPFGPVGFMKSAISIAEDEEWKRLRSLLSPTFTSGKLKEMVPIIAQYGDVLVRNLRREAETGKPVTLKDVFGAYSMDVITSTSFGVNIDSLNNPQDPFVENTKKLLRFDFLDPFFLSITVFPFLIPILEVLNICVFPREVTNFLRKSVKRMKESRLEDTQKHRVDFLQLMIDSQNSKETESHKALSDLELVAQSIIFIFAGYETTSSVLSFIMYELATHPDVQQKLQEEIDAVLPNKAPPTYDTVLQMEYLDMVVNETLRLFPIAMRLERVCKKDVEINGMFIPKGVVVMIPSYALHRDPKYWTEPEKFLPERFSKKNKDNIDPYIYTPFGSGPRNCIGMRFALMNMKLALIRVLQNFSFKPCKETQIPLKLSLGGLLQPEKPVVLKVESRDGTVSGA
Sequence of 5-hydroxytryptamine receptor 2B (P41595 whole entry): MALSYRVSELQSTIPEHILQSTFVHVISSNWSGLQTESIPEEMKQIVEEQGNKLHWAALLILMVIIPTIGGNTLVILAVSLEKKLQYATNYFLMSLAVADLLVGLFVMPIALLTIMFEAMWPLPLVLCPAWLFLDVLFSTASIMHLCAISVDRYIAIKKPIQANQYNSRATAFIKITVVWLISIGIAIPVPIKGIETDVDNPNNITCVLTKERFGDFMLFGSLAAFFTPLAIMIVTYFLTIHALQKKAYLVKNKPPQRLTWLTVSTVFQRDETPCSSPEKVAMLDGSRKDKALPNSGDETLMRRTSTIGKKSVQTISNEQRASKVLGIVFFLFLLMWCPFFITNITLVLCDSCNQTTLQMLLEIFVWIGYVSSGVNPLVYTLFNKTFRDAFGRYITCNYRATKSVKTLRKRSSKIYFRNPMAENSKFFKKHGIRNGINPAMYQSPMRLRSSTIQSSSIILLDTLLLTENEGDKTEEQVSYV
Sequence of Cytochrome P450 2C19 (P33261 whole entry): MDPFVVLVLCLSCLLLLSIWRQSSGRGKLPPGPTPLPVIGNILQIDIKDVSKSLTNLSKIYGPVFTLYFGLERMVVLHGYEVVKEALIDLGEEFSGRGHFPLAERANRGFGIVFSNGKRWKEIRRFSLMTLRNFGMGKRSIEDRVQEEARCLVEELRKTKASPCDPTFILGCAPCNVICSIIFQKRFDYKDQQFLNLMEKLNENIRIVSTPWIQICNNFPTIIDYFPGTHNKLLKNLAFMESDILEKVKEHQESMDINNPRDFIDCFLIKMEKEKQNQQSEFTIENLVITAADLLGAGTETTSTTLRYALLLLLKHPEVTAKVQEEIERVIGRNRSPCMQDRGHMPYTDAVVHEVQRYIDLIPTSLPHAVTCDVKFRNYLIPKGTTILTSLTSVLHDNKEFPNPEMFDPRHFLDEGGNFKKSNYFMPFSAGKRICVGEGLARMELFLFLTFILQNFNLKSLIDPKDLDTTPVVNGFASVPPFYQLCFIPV
Sequence of Cytochrome P450 2D6 (P10635 whole entry): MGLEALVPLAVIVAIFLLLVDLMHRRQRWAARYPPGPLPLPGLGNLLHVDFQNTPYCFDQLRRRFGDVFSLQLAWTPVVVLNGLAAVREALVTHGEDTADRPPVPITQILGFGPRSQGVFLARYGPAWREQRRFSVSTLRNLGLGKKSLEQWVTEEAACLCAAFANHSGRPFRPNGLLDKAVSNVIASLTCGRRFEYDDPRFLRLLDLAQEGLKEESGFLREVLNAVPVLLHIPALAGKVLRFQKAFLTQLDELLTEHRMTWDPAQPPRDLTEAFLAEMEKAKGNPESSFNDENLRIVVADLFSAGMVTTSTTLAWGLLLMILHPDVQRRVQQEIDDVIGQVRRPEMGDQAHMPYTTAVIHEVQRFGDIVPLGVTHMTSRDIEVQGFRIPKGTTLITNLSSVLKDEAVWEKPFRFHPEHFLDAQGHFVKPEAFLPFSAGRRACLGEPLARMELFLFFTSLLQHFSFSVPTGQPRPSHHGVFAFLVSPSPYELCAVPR

Take `CCC(C)(C)C(=O)O[C@H]1C[C@@H](C)C=C2C=C[C@H](C)[C@H](CC[C@@H]3C[C@@H](O)CC(=O)O3)[C@H]21` [SIMVASTATIN]: the IC50 entry (at Progesterone receptor; at Glucocorticoid receptor; on D(1A) dopamine receptor; in data set [1] (cho-k1)) was “Not Active” throughout.

For `CC[C@H](C)[C@@H](CO[C@@H](Cc1ccccc1)C(=O)N[C@@H](CCS(C)(=O)=O)C(=O)OC(C)C)NC[C@@H](N)CS`, the half-inhibitory concentration (IC50) entry (at Progesterone receptor; on Cytochrome P450 2C19; on Glucocorticoid receptor; at Cytochrome P450 1A2; at D(1A) dopamine receptor; in data set [1] (cho-k1)) was “Not Active” each time. In addition, the Ki entry on Cytochrome P450 2C19 and on Cytochrome P450 1A2 was “Not Active” each time.

On to `CN(C)CCC=C1c2ccccc2COc2ccccc21` [DOXEPIN], for which the IC50 entry at Progesterone receptor, against Cytochrome P450 3A4, at Cytochrome P450 2C19, against Glucocorticoid receptor, against Cytochrome P450 2D6 and against Cytochrome P450 1A2 was “Not Active” in each case. Moreover, the Ki result at Cytochrome P450 3A4, on Cytochrome P450 2C19, on Cytochrome P450 2D6 and on Cytochrome P450 1A2 was “Not Active” each time.

For the molecule `Cc1ccc(S(=O)(=O)NC(=O)NN2CCCCCC2)cc1` [TOLAZAMIDE], the 50% inhibitory concentration (IC50) result (at Progesterone receptor; on Glucocorticoid receptor; at D(1A) dopamine receptor; in data set [1] (cho-k1)) was “Not Active” throughout.

Consider `Cc1cccc(C)c1NC(=O)C(C)N` (configuration not stated) [TOCAINIDE], for which the half-inhibitory concentration (IC50) entry at Cytochrome P450 3A4, on Cytochrome P450 2C19, at Glucocorticoid receptor, at Cytochrome P450 2D6, at Cytochrome P450 1A2 and on D(1A) dopamine receptor was “Not Active” throughout. Moreover, the IC50 result in data set [1] (cho-k1) is recorded as “Not Active”. The Ki entry at Cytochrome P450 3A4, at Cytochrome P450 2C19, at Cytochrome P450 2D6 and at Cytochrome P450 1A2 was “Not Active” in each case.

For the molecule `Nc1nc(N)c2nc(-c3ccccc3)c(N)nc2n1`, the IC50 entry (on Progesterone receptor; on Cytochrome P450 2C19; against Glucocorticoid receptor; at Cytochrome P450 1A2; at D(1A) dopamine receptor; in data set [1] (cho-k1)) was “Not Active” in each case. Also, the Ki entry at Cytochrome P450 2C19 and at Cytochrome P450 1A2 was “Not Active” in each case.

For `CCOc1cc(N)c(Cl)cc1C(=O)NCC1CN(Cc2ccc(F)cc2)CCO1` (configuration not stated) [MOSAPRIDE], the 50% inhibitory concentration (IC50) result is “Not Active” at Progesterone receptor; “Not Active” against Glucocorticoid receptor; “Not Active” against Cytochrome P450 2D6; “Not Active” on D(1A) dopamine receptor; 0.296 µM in data set [1] (read-out: IC50). Further, the Ki result on Cytochrome P450 2D6 was “Not Active”; in data set [1] (read-out: Ki) it was 0.188 µM.

Regarding `Cc1cc2c(s1)Nc1ccccc1N=C2N1CCN(C)CC1` [OLANZAPINE], the 50% inhibitory concentration (IC50) result on Progesterone receptor, on Cytochrome P450 3A4, against Cytochrome P450 2C19, at Glucocorticoid receptor, against Cytochrome P450 2D6 and against Cytochrome P450 1A2 was “Not Active” throughout. Also, the inhibition constant (Ki) result on Cytochrome P450 3A4, at Cytochrome P450 2C19, at Cytochrome P450 2D6 and at Cytochrome P450 1A2 was “Not Active” each time.

Consider `C1CCN2C[C@@H]3C[C@@H](CN4CCCC[C@@H]34)[C@H]2C1` [SPARTEINE], for which the IC50 result (on Progesterone receptor; on Glucocorticoid receptor; on D(1A) dopamine receptor; in data set [1] (cho-k1)) was “Not Active” in each case.

Regarding `CO[C@@H]1[C@@H](OC)[C@H](C)[C@@](O)(CC(=O)O)O[C@H]1[C@H](C)[C@H]1O[C@@]2(CC[C@@](C)([C@H]3CC[C@@](C)([C@@H]4O[C@@H]([C@H]5O[C@](C)(O)[C@H](C)C[C@@H]5C)C[C@@H]4O[C@@H]4C[C@H](OC)[C@@H](OC)[C@H](C)O4)O3)O2)C[C@H](O)[C@H]1C.N` [MADURAMICIN], the half-inhibitory concentration (IC50) entry on Progesterone receptor, against Cytochrome P450 3A4, against Cytochrome P450 2C19, against Glucocorticoid receptor, at Cytochrome P450 2D6 and against Cytochrome P450 1A2 was “Not Active” in each case. Also, in data set [1] (cho-k1), the 50% inhibitory concentration (IC50) entry was “Not Active”. For the same molecule, the Ki entry at Cytochrome P450 3A4, at Cytochrome P450 2C19, on Cytochrome P450 2D6 and on Cytochrome P450 1A2 was “Not Active” each time.
